Results published in patent US9255279B2, “Anaplastic lymphoma kinase (ALK) as an oncogene capable of transforming normal human cells” (The Trustees of the University of Pennsylvania, priority 2013, dated 2016).

Key:
[1] = tested on: CD30; assay: CD30 expression by flow cytometry in NPM-ALK-transformed CD4+ T cells and ALK+ALCL-derived cells; type: cell-based, human; settings: 100 nM, FIG. 3B
Procedure: (§1) The cells were analyzed using FACSCalibur (BD Biosciences) and, for data analysis, CellQuest Pro software version 6.03 (BD Biosciences). For the standard cell-surface staining, 0.5−1.0×10^6 cells were incubated for 20 minutes at 4° C. with 10-20 ul of fluorescein isothiocyanate-conjugated (FITC), phycoerythrin-conjugated (PE), or allophycocyanin-conjugated (APC) standard anti-T- and B-cell antibodies, PD-L1 or isotype control antibody (Bio-Legend, San Diego, Calif.). The intracellular staining was performed by using commercially available fixation and permeabilization reagents (BD Biosciences or Life Technologies, Carlsbad, Calif.). In brief, 0.5−1.0×10^6 washed membrane-stained or unstained cells were fixed for 15 minutes at room temperature with 100 ul of Fix/Per-solution or Fixation medium. After washing the cells were re-suspended in 100 ul of PBS or Permeabilization medium, and incubated for 15 minutes at room temperature with 10-20 ul of PE-labeled ALK or isotype control antibody (BD Biosciences). After additional washing, cells were analyzed by flow cytometry (FACSCalibur; BD Biosciences). Data acquisition and analysis were performed using CellQuest Pro software version 6.03 (BD Biosciences).

[2] = tested on: CD30; assay: CD30 expression in ALK-negative T-cell lymphoma line 2A; type: cell-based, human; settings: ALK-negative T-cell lymphoma cells (2A); FIG. 3B
Procedure: as §1

[3] = tested on: IL-10; assay: IL-10 assay; type: cell-based, human; settings: 100 nM; FIG. 3C
Procedure: IL-10 expression was using a Human Cytokine 10-Plex Antibody Bead Kit (Life Technologies) as per manufacturer protocol. Sample acquisition employed a Luminex FlexMAP-3D (Life Technologies), and analyses performed using xPONENT software (version 4.0). A nine-point standard curve at threefold dilutions was employed with the range defined by 80%-120% of expected/observed values. Samples were tested in duplicate and CV was <10%. The results are presented as the decrease in the ALK inhibitor (CEP-28122)-treated cells relative to untreated cells.
Total RNA was extracted (RNeasy kit; Qiagen) and reverse transcribed using High Capacity RNA-to-cDNA kit (ABI). Expression levels of NPM-ALK mRNA were quantified by using an ABI/PRISM 7700 sequence detection system with TaqMan Gene Expression Assay kits (NPM-ALK, Hs03024829; β-actin, Hs9999903) (Life Technologies) and SYBR Green assay (Life Technologies) using primers for IL-10 (5′-AAGGCGCATGTGAACTCC-3′; SEQ ID NO: 1 and 5′-[…]-3′; SEQ ID NO: 2) and for GAPDH (5′-[…]-3′; SEQ ID NO: 3 and 5′-[…]-3′; SEQ ID NO: 4. All assays were performed in duplicate. The fold difference in RNA levels was calculated on the basis of the difference between CT values obtained for control and individual mRNA (ΔCT).

[4] = tested on: PD-L1; assay: PD-L1 expression by flow cytometry; type: cell-based, human; settings: 100 nM; FIG. 3D
Procedure: as §1

[5] = tested on: NPM-ALK-transformed CD4+ T cells; assay: Cell growth of NPM-ALK-transformed CD4+ T cells; type: cell-based, human; settings: FIG. 3E and FIG. 12A
Procedure: The cells suspended at 2×10^4/well were incubated at 37° C. in microtiter plates for up to two days, then incubated with MTT (Promega Madison, […].) for 4 hours. Well contents were solubilized overnight in the medium containing 10% SDS and 0.01M HCL. Absorbance at 570 nm in each well was measured using a Titertek Multiskan reader (Thermo Fisher Scientific).
The assay was performed using a cell-proliferation enzyme linked immunosorbent assay (ELISA; Roche Diagnostics, Indianapolis, Ind.) according to the manufacturer's protocol. In brief, cells were cultured at a concentration of 2×10^4 cells per well for 44 hours and labeled with bromodeoxyuridine for 4 hours. After centrifugation, supernatant removal, and plate drying, the cells were fixed and the DNA was denatured using FixDenat reagent (Roche Diagnostics). The amount of incorporated bromodeoxyuridine was determined by incubation with a specific antibody conjugated with horseradish peroxidase, followed by colorimetric conversion of the substrate and absorbance evaluation in the ELISA plate reader.
For annexin V expression assay, cells were treated with the ALK inhibitor CEP-28122 (100 nmol/L) for 48 hours or with ALK siRNA (100 pmol/L) for 72 hours. […] The stained cells were analyzed by flow cytometry using a FACSCalibur system (BD Biosciences); data acquisition and analysis were performed using Cell-Quest Pro software (BD Biosciences).

[6] = biological target: T1, NPM-ALK (Homo sapiens, UniProt Q9UM73); assay: Phosphorylation of ALK and its targets in NPM-ALK-transfected HEK cells; type: cell-based; design: expressed in transfected cells; the other entry of the earlier key: NPM1 (P06748, Nucleophosmin); settings: higher dose of inhibitor needed, FIG. 10
T1 sequence (Q9UM73 with tags, fused parts or gaps): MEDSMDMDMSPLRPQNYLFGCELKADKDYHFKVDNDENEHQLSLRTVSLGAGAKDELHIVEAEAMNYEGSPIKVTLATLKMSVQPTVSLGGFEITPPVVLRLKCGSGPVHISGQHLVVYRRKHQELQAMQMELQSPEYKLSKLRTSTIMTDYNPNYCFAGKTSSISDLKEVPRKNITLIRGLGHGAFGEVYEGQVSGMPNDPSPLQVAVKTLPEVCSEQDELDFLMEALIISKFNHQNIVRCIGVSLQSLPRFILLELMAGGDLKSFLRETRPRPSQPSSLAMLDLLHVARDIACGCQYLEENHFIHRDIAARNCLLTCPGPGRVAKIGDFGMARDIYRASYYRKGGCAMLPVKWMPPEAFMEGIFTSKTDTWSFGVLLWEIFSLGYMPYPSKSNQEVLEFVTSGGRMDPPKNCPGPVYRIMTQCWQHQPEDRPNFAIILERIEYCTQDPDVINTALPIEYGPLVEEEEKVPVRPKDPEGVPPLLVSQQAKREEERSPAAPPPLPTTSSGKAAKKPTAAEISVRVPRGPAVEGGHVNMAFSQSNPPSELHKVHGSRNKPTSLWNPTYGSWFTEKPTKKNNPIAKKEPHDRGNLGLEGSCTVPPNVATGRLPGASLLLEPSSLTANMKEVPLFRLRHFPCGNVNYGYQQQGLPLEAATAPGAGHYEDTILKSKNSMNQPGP
Procedure: (§2) These experiments were performed using antibodies against phosphorylated (p)-ALK, p-STAT3, p-S6RP, total S6RP (Cell Signaling Technology), total NPM-ALK (Pharmigen, San Diego, Calif.), and total STAT3 and actin (ACTB), both from Santa Cruz Biotechnology (Santa Cruz, Calif.), according to the standard protocols.

[7] = biological target: T1, NPM-ALK; assay: Western blotting of phosphorylated signaling proteins in NPM-ALK-transformed CD4+ T cells (NA1, NA2) and SUDHL-1; type: cell-based; design: expressed in transfected cells; host or cells: Human CD4+ T cells transduced with a lentiviral vector (lines NA1, NA2); The control line SUDHL-1 expresses NPM-ALK endogenously from the translocation; the other entry of the earlier key: NPM1 (P06748, Nucleophosmin); settings: NA1, NA2 and control SUDHL-1 cells, 100 nM, FIG. 3A
Procedure: as §2
A mixture of four siRNAs specific for ALK or control siRNAs (all from Dharmacon; Thermo Fisher Scientific, Waltham, Mass.) was introduced into cells using Lipofectamine 2000 as described previously (Marzec et al., 2008, Proc Natl Acad Sci USA 105(52):20852-20857) for SUDHL-1 cells and Nucleofector T-solution (Amaxa; Lonza, Walkersville, Md.) for CD4+ T-cell derived NA1 cells.

COc1c(Nc2ncc(Cl)c(N[C@H]3[C@@H](C(N)=O)[C@@H]4C=C[C@H]3C4)n2)ccc2c1CC[C@@H](N1CCOCC1)CC2 [CEP-28122]
expression of CD30 [1]: Suppressive effect
expression of CD30 ([1]; listed as ALK inhibitor): diminished
CD30 expression [2]: no effect
synthesis of IL-10 [3]: Suppressive effect
expression of PDL-1 [4]: Suppressive effect
cell growth [5]: dose-dependent inhibition
cell growth ([5]; listed as ALK inhibitor): suppressed
ALK, STAT3 and S6RP phosphorylation [6]: suppress
phosphorylation of cell signaling proteins (ALK, STAT3, S6RP) [7]: Suppressive effect
phosphorylation of cell signaling proteins (ALK, STAT3, S6RP) ([7]; listed as ALK inhibitor): suppression
